The target in test [1] is rat adrenal receptor preparations (angiotensin II binding). The test is described as follows: inhibition of 125I-angiotensin II binding to rat adrenal receptor preparations. The following applies: read-out: IC50 (μM) for inhibition of 125I angiotensin II binding to rat adrenal receptor preparations.
The subject of test [2] is 2 kidney, 1-clip Goldblatt hypertensive rat (RHR). In words: antihypertensive evaluation (AHP3): blood pressure in conscious 2 kidney, 1-clip Goldblatt (renal) hypertensive rats (RHR). Format: in vivo. The following applies: 30 mg/kg ip in RHR, read-out: Max % decrease in blood pressure. An excerpt: The continuous monitoring of pulsatile blood pressure (BP) from unrestrained conscious rats surgically equipped with polyethylene cannulas was accomplished by means of a computer assisted data capture scheme (CADCS). The basic elements of the methodology are the cannulation procedure and the CADCS.
Cannulas fabricated from polyethylene tubing were inserted into the aorta via an undersized puncture hole below the renal arteries. The puncture hole was made by a 23 G disposable needle with a section of the aorta clamped off above and below the puncture site. The cannulas, consisting of a PE100 (0.86 mm ID) body and a PE50 (0.58 mm ID) tip, were attached to a trocar, inserted through the psoas muscle, and passed subcutaneously along the midline of the back and externalized between the ears. The cannulas were anchored to the psoas muscle and between the scalulae (3-0 green braided suture). […] Each rat was then given penicillin 30,000 units subcutaneously (Penicillin G Procaine Sterile Suspension).
The rats were fitted with a harness-spring-swivel assembly designed to protect the cannula and to provide the rat relative freedom of movement. The harnesses were fabricated from nylon hook and loop tape cemented to a metal plate to which spring wires (18-8 stainless steel), were attached to brass swivels. […]

The subject of test [3] is spontaneously hypertensive rat (SHR). In words: antihypertensive evaluation (AHP3): blood pressure in conscious spontaneously hypertensive rats (SHR). Format: in vivo. The note with it: 30 mg/kg PO in SHR, read-out: Max % decrease in blood pressure. On the procedure:
Thus, for example, compounds of formula I when administered intrapertoneally or orally to 2 kidney, 1-clip Goldblatt (renal) hypertensive rats (See S. Sen, et al., "Role of Renin-Anfgiotensin System in Chronic Renal Hypertensive Rats," Hypertension 1: 427-4343 (1979) and Clin. Soc. 57: 53-62, 1979, "Antihypertensive Effect of Prolonged Blockade of Angiotensin Formation in Benign and Malignant, one- and two-kidney Goldblatt Hypertensive Rats".) at doses in the range of 1-100 mg/kg cause 10-80 mmHg drops in blood pressure. […] Angiotensin binding inhibition activity and blood pressure lowering activity in renal hypertensive rats of the optimally substituted examples of formula I are listed in Table 1. Blood pressure lowering activity in spontaneously hypertensive rats of optimally substituted examples of formula II are listed in Table 2. […]
CADCS: The pulsatile blood pressure of each of 32 rats was monitored continuously by two signal conditioning units (Gould, Cleve., Ohio). The signals from these units were monitored and digital data for mean, systolic, and diastolic blood pressures as well as for heart rate were calculated every 5 min by two in-laboratory computers (Hewlett Packard, Cupertino, Ca.). […]

The structures appear in SMILES notation.

Consider `O=C(O)C1Cc2c(ncn2Cc2ccccc2)CN1C(=O)C1c2ccccc2-c2ccccc21` (racemic) [Example 29, 1H-Imidazo[4,5-c]pyridine-6-carboxylic acid, 5-[(9H-fluoren-9-yl)carbonyl]-4,5,6,7-tetrahydro-1-(phenylmethyl)-, (±)-], for which, in test [1], the IC50 is 8 µM. Also, in test [2], the change in vivo at 30 mg/kg was -22%.
As for `CSc1ccc(N2C(=O)C3Cc4[nH]cnc4CN3C2=O)cc1` (stereo not drawn) [Example 158, 8a,9-Dihydro-7-[4-(methylthio)phenyl]-1H-diimidazo[1,5-a:4',5'-d]pyridine-6,8(4H,7H)-dione], the change in vivo at 30 mg/kg in test [3] was -17%.

Values taken from patent US4816463A, “Substituted diimidazo [1,5-a: 4',5'-d]pyridines having antihypertensive activity” (Warner-Lambert Company, priority 1987, dated 1989).
